From US5753617A, “Peptide inhibitors of cellular adhesion” (Centocor, Inc., priority 1995, dated 1998)
Where a SMILES comes first, the peptide text is derived from it. Bridges are numbered along the chain shown (N, C = ends). [ ]: non-standard residue; d: D form. dPen = CC(C)(S)[C@@H](N)C(=O)O; dThz = O=C(O)[C@H]1CSCN1

The compounds below were run against T1, P-selectin (Homo sapiens, UniProt P16109) (assay: Inhibition of human neutrophil adhesion to purified P-selectin immobilized on plastic wells). Details: inhibiting the binding of human neutrophils to P-selectin.
T1 construct: P-selectin is isolated from human platelet lysates; from tissue; host or cells: human platelets (outdated platelet packs from a blood bank)
T1 sequence (P16109 42-830): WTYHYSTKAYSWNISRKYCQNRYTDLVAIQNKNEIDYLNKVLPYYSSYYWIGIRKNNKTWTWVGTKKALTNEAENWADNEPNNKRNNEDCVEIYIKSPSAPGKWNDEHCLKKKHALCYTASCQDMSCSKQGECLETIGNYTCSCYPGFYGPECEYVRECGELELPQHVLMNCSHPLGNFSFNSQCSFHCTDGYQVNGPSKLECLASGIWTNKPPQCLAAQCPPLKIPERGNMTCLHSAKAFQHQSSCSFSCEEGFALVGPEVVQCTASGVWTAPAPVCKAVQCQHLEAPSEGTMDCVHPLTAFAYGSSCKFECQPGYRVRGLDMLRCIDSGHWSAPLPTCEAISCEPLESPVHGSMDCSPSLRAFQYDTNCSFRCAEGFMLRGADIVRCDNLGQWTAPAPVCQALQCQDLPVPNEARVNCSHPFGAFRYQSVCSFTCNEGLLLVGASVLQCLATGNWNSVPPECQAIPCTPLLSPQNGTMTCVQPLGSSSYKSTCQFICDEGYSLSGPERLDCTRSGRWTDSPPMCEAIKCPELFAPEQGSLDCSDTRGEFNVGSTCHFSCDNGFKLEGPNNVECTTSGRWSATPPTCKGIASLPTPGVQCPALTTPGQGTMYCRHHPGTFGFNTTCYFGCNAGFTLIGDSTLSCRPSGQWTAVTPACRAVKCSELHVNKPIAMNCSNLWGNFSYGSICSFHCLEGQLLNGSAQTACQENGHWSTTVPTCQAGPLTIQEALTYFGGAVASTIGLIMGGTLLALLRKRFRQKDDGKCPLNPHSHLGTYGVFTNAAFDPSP
Format: cell-based
Text: Peptides can be screened for their ability to inhibit adhesion to cells, for example, neutrophil adhesion to purified P-selectin immobilized on plastic wells, using the assay described by Geng, et al., Nature 343, 757-760 (1990). Human neutrophils are isolated from heparinized whole blood by density gradient centrifugation on Mono-Poly resolving media, Flow Laboratories. Neutrophil suspensions are greater than 98% pure and greater than 95% viable by trypan blue exclusion. For adhesion assays, neutrophils are suspended at a concentration of 2×10^6 cells/mL in Hanks' balanced salt solution containing 1.26 mM Ca^2+ and 0.81 mM Mg^2+ (HBSS, Gibco) with […] human serum albumin (HBSS/HSA). Adhesion assays are conducted in triplicate in 96-well microliter plates, Corning, incubated at 4° C. overnight with 50 microliters of various protein solutions. P-selectin is isolated from human platelet lysates by immunoaffinity chromatography on antibody S12-Sepharose™ and ion-exchange chromatography on a Mono-Q™ column (FLPC, Pharmacia Fine Chemicals), as follows. Outdated human platelet packs (100 units) obtained from a blood bank and stored at 4° C. are pooled, adjusted to 5 mM EDTA at pH 7.5, centrifuged at 4,000 rpm for 30 minutes in 1 liter bottles, then washed three times with 1 liter of 0.1M NaCl, 20 mM Tris pH 7.5 (TBS), 5 mM EDTA, 5 mM benzamidine. The pellets are then resuspended in a minimum amount of wash buffer and made 1 mM in DIFP, then frozen in 50 mL screwtop tubes at -80° C. The frozen platelets are thawed and resuspended in 50 mL TBS, 5 mM benzamidine, 5 mM EDTA pH 7.5, […]. The suspension is frozen and thawed two times in a dry ice-acetone bath using a 600 mL lyophilizing flask, then homogenized in a glass/teflon mortar and pestle and made 1 mM in DIFP. The NaCl concentration is adjusted to 0.5M with a stock solution of 4M NaCl. After stirring the suspension at 4° C., it is centrifuged in polycarbonate tubes at 33,000 rpm for 60 minutes at 4° C. The supernatant (0.5M NaCl wash) is removed and saved; this supernatant contains the soluble form of P-selectin. Care is taken not to remove the top part of the pellet with the supernatant. The pellets are then homogenized in extraction buffer (TBS, 5 mM benzamidine, 5 mM EDTA, pH 7.5, 100 μM leupeptin, 2% Triton X-100). After centrifugation at 19,500 rpm for 25 minutes at 4° C., the supernatant is removed. The extraction procedure is repeated with the pellet and the supernatant is combined with the first supernatant. The combined extracts, which contain the membrane form of P-selectin, are adjusted to 0.5M NaCl. The soluble fraction (0.5M NaCl wash) and the membrane extract (also adjusted to 0.5M NaCl) are absorbed with separate pools of the monoclonal antibody S12 (directed to P-selectin) previously couple […]) at 5 mg/mL for 2 hours at 4° C. After letting the resins settle, the supernatants are removed. The S12 Affigel containing bound GMP-140 is then loaded into a column and washed overnight at 4° C. with 400 mL of 0.5M NaCl, 20 mM Tris pH 7.5, 0.01% Lubrol PX. Bound P-selectin is eluted from the S12 Affigel with 100 mL of 80% ethylene glycol, 1 mM MES pH 6.0, 0.01% Lubrol PX. Peak fractions with absorbance at 280 nm are pooled. Eluates are dialyzed against TBS with 0.05% Lubrol, then applied to a Mono Q column (FPLC from Pharmacia). The concentrated protein is step eluted with 2M NaCl, 20 mM Tris pH 7.5 (plus 0.05% Lubrol PX for the membrane fraction). Peak fractions are dialyzed into TBS pH 7.5 (plus 0.05% Lubrol PX for the membrane fraction). P-selectin is plated at 5 micrograms/mL and the control proteins: human serum albumin (Alb), platelet glycoprotein IIb/IIIa (IIb), von Willebrand factor (vWF), fibrinogen (FIB), thrombomodulin (TM), gelatin (GEL) or human serum (HS), are added at 50 micrograms/mL. […]

| SMILES | IC50 [µM] |
| --- | --- |
| CC(C)[C@@H](NC(=O)[C@@H](Cc1ccc(O)cc1)NC(=O)[C@H](NC(=O)[C@@H](Cc1c[nH]c2ccccc12)NC(=O)[C@H]1CSSC[C@@H](NC(=O)[C@@H](CCCCN)NC(=O)[C@H](N)CCCNC(=N)N)C(=O)NCC(=O)N[C@@H](Cc2ccccc2)C(=O)N1)[C@H](C)O)C(N)=O [(63)] (H-[dR][dK][dC]GF[dC][dW][dT][dY][dV]-NH2; disulfide 3-6) | 19.3 |
| CC[C@H](C)[C@@H]1NC(=O)[C@H](CCCCN)NC(=O)[C@@H](N)CCC(=O)NCCCC[C@@H](C(=O)N[C@@H](Cc2c[nH]c3ccccc23)C(=O)N[C@H](C(=O)N[C@@H](Cc2c[nH]c3ccccc23)C(=O)N[C@H](C(N)=O)C(C)C)[C@@H](C)O)NC(=O)CNC(=O)CNC1=O [Preferred peptide (1), Cyclo(glutamyl-lysyl-isoleucyl-glycyl-glycyl-lysyl)-tryptophyl-threonyl-tryptophyl-valine-amide] (H-EKIGGKWTWV-NH2; lactam 1-6) | 115 |
| CC(C)[C@@H](NC(=O)[C@@H](Cc1c[nH]c2ccccc12)NC(=O)[C@H](NC(=O)[C@@H](CCC(N)=O)NC(=O)[C@H]1CSSC[C@@H](NC(=O)[C@@H](CCCCN)NC(=O)[C@H](N)CCCNC(=N)N)C(=O)NCC(=O)N[C@@H](Cc2ccccc2)C(=O)N1)[C@H](C)O)C(N)=O [(46)] (H-[dR][dK][dC]GF[dC][dQ][dT][dW][dV]-NH2; disulfide 3-6) | 48.4 |
| CC(C)[C@@H](NC(=O)[C@@H](Cc1c[nH]c2ccccc12)NC(=O)[C@H](NC(=O)[C@@H](Cc1c[nH]c2ccccc12)NC(=O)[C@H]1CSSC[C@@H](NC(=O)[C@@H](CCC(N)=O)NC(=O)[C@H](N)CCCNC(=N)N)C(=O)NCC(=O)N[C@@H](Cc2ccccc2)C(=O)N1)[C@H](C)O)C(N)=O [(111)] (H-[dR][dQ][dC]GF[dC][dW][dT][dW][dV]-NH2; disulfide 3-6) | 18.4 |
| CC[C@@H](C)[C@@H](NC(=O)[C@@H](CCCCN)NC(=O)[C@H](N)CCCNC(=N)N)C(=O)NCC(=O)N[C@@H]1CSSC[C@H](C(=O)N[C@@H](C(=O)N[C@@H](C(N)=O)C(C)C)[C@H](C)O)NC(=O)[C@@H](Cc2c[nH]c3ccccc23)NC(=O)[C@@H]([C@H](C)CC)NC1=O [(108)] (H-[dR][dK][dI]G[dC][dI][dW][dC][dT][dV]-NH2; disulfide 5-8) | 23.8 |
| CC(C)[C@@H](NC(=O)[C@@H](Cc1c[nH]c2ccccc12)NC(=O)[C@H](NC(=O)[C@@H]1CCCN1C(=O)[C@H]1CSSC[C@@H](NC(=O)[C@@H](CCCCN)NC(=O)[C@H](N)CCCNC(=N)N)C(=O)NCC(=O)N[C@@H](Cc2ccccc2)C(=O)N1)[C@H](C)O)C(N)=O [(82)] (H-[dR][dK][dC]GF[dC]P[dT][dW][dV]-NH2; disulfide 3-6) | 547 |

Next, values leading:

| IC50 [µM] | SMILES |
| --- | --- |
| 26.7 | CC(C)[C@@H](NC(=O)[C@H](Cc1c[nH]c2ccccc12)NC(=O)[C@H](NC(=O)[C@@H](Cc1c[nH]c2ccccc12)NC(=O)[C@H]1CSSC[C@@H](NC(=O)[C@@H](CCCCN)NC(=O)[C@H](N)CCCNC(=N)N)C(=O)NCC(=O)N[C@@H](Cc2ccccc2)C(=O)N1)[C@H](C)O)C(N)=O [(96)] (H-[dR][dK][dC]GF[dC][dW][dT]W[dV]-NH2; disulfide 3-6) |
| 11.6 | CC(C)[C@@H](NC(=O)[C@@H](Cc1c[nH]c2ccccc12)NC(=O)[C@H](NC(=O)[C@@H](Cc1c[nH]c2ccccc12)NC(=O)[C@H]1CSSC[C@H](NC(=O)[C@@H](CCCCN)NC(=O)[C@H](N)CCCNC(=N)N)C(=O)NCC(=O)N[C@@H](Cc2ccccc2)C(=O)N1)[C@H](C)O)C(N)=O [(35)] (H-[dR][dK]CGF[dC][dW][dT][dW][dV]-NH2; disulfide 3-6) |
| 6 | CC(C)[C@H](NC(=O)[C@H]1CSSC[C@@H](NC(=O)[C@@H](CCCCN)NC(=O)[C@H](N)CCCNC(=N)N)C(=O)NCC(=O)N[C@@H](Cc2ccccc2)C(=O)N1)C(=O)N[C@H](Cc1c[nH]c2ccccc12)C(=O)N[C@@H](C(=O)N[C@H](Cc1c[nH]c2ccccc12)C(N)=O)[C@H](C)O [(75)] (H-[dR][dK][dC]GF[dC]V[dW][dT][dW]-NH2; disulfide 3-6) |
| 41 | CC(C)[C@H](NC(=O)[C@H](Cc1c[nH]c2ccccc12)NC(=O)[C@@H](NC(=O)[C@H](Cc1c[nH]c2ccccc12)NC(=O)[C@@H]1NC(=O)CNC(=O)CNC(=O)[C@H](NC(=O)[C@H](CCCCN)NC(=O)[C@@H](N)CCCNC(=N)N)C(C)(C)SSC1(C)C)[C@@H](C)O)C(N)=O [(24)] (H-RK[dPen]GG[dPen]WTWV-NH2; disulfide 3-6) |
| 406 | CC(C)[C@@H](NC(=O)[C@@H](Cc1c[nH]c2ccccc12)NC(=O)[C@H](NC(=O)[C@@H](Cc1c[nH]cn1)NC(=O)[C@H]1CSSC[C@@H](NC(=O)[C@@H](CCCCN)NC(=O)[C@H](N)CCCNC(=N)N)C(=O)NCC(=O)N[C@@H](Cc2ccccc2)C(=O)N1)[C@H](C)O)C(N)=O [(48)] (H-[dR][dK][dC]GF[dC][dH][dT][dW][dV]-NH2; disulfide 3-6) |
| 42.7 | CC(C)[C@@H](NC(=O)[C@@H](Cc1c[nH]c2ccccc12)NC(=O)[C@H](NC(=O)[C@@H](Cc1c[nH]c2ccccc12)NC(=O)[C@@H]1CSSC[C@@H](NC(=O)[C@@H](CCCCN)NC(=O)[C@H](N)CCCNC(=N)N)C(=O)NCC(=O)N[C@@H](Cc2ccccc2)C(=O)N1)[C@H](C)O)C(N)=O [(91)] (H-[dR][dK][dC]GFC[dW][dT][dW][dV]-NH2; disulfide 3-6) |
| 610 | C[C@@H](O)[C@H](NC(=O)[C@H](Cc1c[nH]c2ccccc12)NC(=O)[C@@H]1CSSC[C@H](NC(=O)[C@H](CCCCN)NC(=O)[C@@H](N)CCCNC(=N)N)C(=O)NCC(=O)NCC(=O)N1)C(=O)N[C@@H](Cc1c[nH]c2ccccc12)C(N)=O [(7)] (H-RKCGGCWTW-NH2; disulfide 3-6) |
| 186 | CC(C)[C@@H](NC(=O)[C@@H](Cc1c[nH]c2ccccc12)NC(=O)[C@H](NC(=O)[C@@H](Cc1c[nH]c2ccccc12)NC(=O)[C@H]1CSSC[C@@H](NC(=O)[C@@H](CCCCN)NC(=O)[C@H](N)CCCNC(=N)N)C(=O)NCC(=O)N2CSC[C@@H]2C(=O)N1)[C@H](C)O)C(N)=O [(58)] (H-[dR][dK][dC]G[dThz][dC][dW][dT][dW][dV]-NH2; disulfide 3-6) |
